Patent US12389908B2, “Fungicide composition for controlling Zymoseptoria infection in plant” (priority 2019, dated 2025)

Columns and labels:
[1] = system: Zymoseptoria tritici strain Zt Tri-R6; test: Preventive treatment of wheat plants, inoculated leaf fragments (detached leaf test), necrosis length / AUDPC; format: in vivo
Method: A study was conducted to evaluate efficacy of multi-site fungicide (Captan) on zymoSeptoria tritici pathogen. Winter wheat plants cv. Alixan (Limagrain) at the BBCH 12 growth stage were treated with a hand sprayer at 2 bars calibrated to deliver the equivalent of 200 L/ha. Three replicates (pots) of 6 wheat plants each are used for all conditions tested. After treatment, wheat plants are left to dry at room temperature for 1 hour and then placed in a climatic chamber.
Twenty-four hours after treatments, 5-cm fragments of the first leaf are cut and transferred on 90-mm diameter Petri dish containing water agar supplemented with an anti-senescing compound (7 leaf fragments per Petri dish). Leaf fragments are then inoculated with a paint brush dipped into the calibrated pycnospores suspension of Z. tritici strain Mg Tri-R6.
After inoculation, Petri dishes are placed in adapted climatic conditions.
Disease assessments are carried out 21 and 28 days post inoculation (dpi) by measuring the length of the necrosis and the total length of the leaf fragment. The intensity of infection is then determined in percent of the total length of the leaf fragment. The values of the intensity of infection obtained are compared by means of the Newman and Keuls test (XL-Stat software, Addinsoft Ltd.).
The most commonly used method for estimating the Area Under the Disease Progress Curve (AUDPC), the trapezoidal method, is performed. The fungicide efficacy was determined from the intensity of infection and the AUDPC values and expressed in percent of the untreated control.

[2] = system: Speckled leaf blotch of wheat (Spetoria Titrici); test: Field trials (Trial 1 and Trial 2) in winter wheat, control of speckled leaf blotch; format: in vivo, Zymoseptoria tritici
Method: Two trials were conducted in Winter wheat/Triticum aestivum (winter), variety ADVISOR, to evaluate the control of Speckled leaf blotch of wheat (Spetoria Titrici) as primary target. All products were applied with a knapsack sprayer using compressed air as the propellant. The sprayer was equipped with a boom and flat fan nozzles, and calibrated to apply a homogeneous spray volume at a constant pressure.
Application method: Application A: At the beginning of disease attack and Application B: Renew the application when new disease attack occurs in the best plots, 3 weeks after application A (at least 2 weeks, at the most 4 weeks).

[3] = Dose 1600 g a.i./ha, strain Zt Tri-R6, wheat leaf fragments treated preventively

## S1SSSSSSS1 [sulphur]
[1]; Dose 4200 g a.i./ha, strain Zt Tri-R6, wheat leaf fragments treated preventively
  Fungicide efficacy against Zymoseptoria tritici (% Control): 65.8 % Control

## CC1COC(Cn2cncn2)(c2ccc(Oc3ccc(Cl)cc3)cc2Cl)O1 (stereo not drawn) [Difenoconazole]
[1]; Table 2, from AUDPC values, dose 25 g a.i./ha, strain Zt Tri-R6
  Fungicide efficacy against Zymoseptoria tritici (% Control): 81.8 % Control

## OC(Cc1ccccc1Cl)(Cn1nc[nH]c1=S)C1(Cl)CC1 (stereo not drawn) [Prothioconazole]
[1]; Table 3, from AUDPC values, dose 30 g a.i./ha, strain Zt Tri-R6
  Fungicide efficacy against Zymoseptoria tritici (%): 68.2%
[1]; Table 4, from AUDPC values, dose 22.5 g a.i./ha, strain Zt Tri-R6
  Fungicide efficacy against Zymoseptoria tritici (%): 62.9%
[2]; Trial 1, winter wheat field, rate 0.31 L/ha, 28 DA-B (first 28 DA-B column)
  Fungicide efficacy against Zymoseptoria tritici (% Control): 31.2 % Control
[2]; Trial 1, winter wheat field, rate 0.31 L/ha, 28 DA-B (second 28 DA-B column)
  Fungicide efficacy against Zymoseptoria tritici (% Control): 28.8 % Control
[2]; Trial 2, winter wheat field, rate 0.31 L/ha, 26 DA-A
  Fungicide efficacy against Zymoseptoria tritici (% Control): 42.3 % Control
[2]; Trial 2, winter wheat field, rate 0.31 L/ha, 40 DA-A (first 40 DA-A column)
  Fungicide efficacy against Zymoseptoria tritici (% Control): 40.7 % Control
[2]; Trial 2, winter wheat field, rate 0.31 L/ha, 40 DA-A (second 40 DA-A column)
  Fungicide efficacy against Zymoseptoria tritici (% Control): 58.4 % Control

## O=C1C2CC=CCC2C(=O)N1SC(Cl)(Cl)Cl (stereo not drawn) [Captan]
[1]; 800 g/ha, strain Zt Tri-R6
  efficiency: 77%
[1]; 1600, 2400 and 3200 g/ha
  inhibition of the development of the Z. tritici strain into wheat leaf tissues: almost completely inhibits
[1]; Dose 800 g a.i./ha, strain Zt Tri-R6, wheat leaf fragments treated preventively
  Fungicide efficacy against Zymoseptoria tritici (% Control): 77.9 % Control
[1]; [3]
  Fungicide efficacy against Zymoseptoria tritici (% Control): 96.0 % Control
[1]; Dose 2400 g a.i./ha, strain Zt Tri-R6, wheat leaf fragments treated preventively
  Fungicide efficacy against Zymoseptoria tritici (% Control): 97.0 % Control
[1]; Dose 3200 g a.i./ha, strain Zt Tri-R6, wheat leaf fragments treated preventively
  Fungicide efficacy against Zymoseptoria tritici (% Control): 100 % Control
[1]; conclusion from Tables 1 to 5
  effectiveness for controlling Septoria tritici: effective for controlling Septoria tritici
[1]; lowest rate of 800 g/ha
  fungicidal efficacy against Zymoseptoria tritici strain Zt Tri-R6: very good fungicidal efficacy
[2]; Trial 1, winter wheat field, rate 1.8 L/ha, 28 DA-B (first 28 DA-B column)
  Fungicide efficacy against Zymoseptoria tritici (% Control): 32.4 % Control
[2]; Trial 1, winter wheat field, rate 1.8 L/ha, 28 DA-B (second 28 DA-B column)
  Fungicide efficacy against Zymoseptoria tritici (% Control): 24.5 % Control
[2]; Trial 2, winter wheat field, rate 1.8 L/ha, 26 DA-A
  Fungicide efficacy against Zymoseptoria tritici (% Control): 41.3 % Control
[2]; Trial 2, winter wheat field, rate 1.8 L/ha, 40 DA-A (first 40 DA-A column)
  Fungicide efficacy against Zymoseptoria tritici (% Control): 31.9 % Control
[2]; Trial 2, winter wheat field, rate 1.8 L/ha, 40 DA-A (second 40 DA-A column)
  Fungicide efficacy against Zymoseptoria tritici (% Control): 25.7 % Control

## Mancozeb
[1]; [3]
  Fungicide efficacy against Zymoseptoria tritici (% Control): 21.0 % Control

## N#Cc1c(Cl)c(Cl)c(Cl)c(C#N)c1Cl [Chlorothalonil]
[1]; Dose 750 g a.i./ha, strain Zt Tri-R6, wheat leaf fragments treated preventively
  Fungicide efficacy against Zymoseptoria tritici (% Control): 69.2 % Control
